Source: patent EP1655284A1, “2-Phenylsulfopyrroles” (Aponetics AG, priority 2004, dated 2006)

Assays:
[1] = test system: HeLa; experiment: Hoechst 33342 nuclear staining; type: cell-based, human; set-up: key: 0: no activity; 1: weak activity comprising less than 50% of the cells; 2: strong activity comprising more than 50% of the cells; conditions: 48 hour read-out
Method: (§1) This assay is performed in 96 well tissue culture plates. Appropriate number of cells (adherent cells: 3 - 5*10^3, suspension cells: 8 - 10*10^3) are being seeded out in 80 µl complete medium. Adherent cells are incubated for 24 h for proper spreading out before addition of test compounds while suspension cells are immediately treated with test compounds after seeding out. The test compounds are added in 20 µl complete medium containing max 5% DMSO. […] After 24 h or 48 h incubation at culture conditions, 10 µl medium containing Hoechst 33342 dye (Sigma B-2261) at 2-5 µg/ml are added to each well. The assay plates are then further incubated for 30 minutes and subsequently analyzed with a standard inverted fluorescence microscope.
(§2) The readout allows the determination of the fraction of apoptotic nuclei as well as other morphological criteria specific for apoptosis as a function of the treatment. Table 2: Hoechst 33342 nuclear staining (48 hour read-out)

[2] = test system: H460; experiment: Hoechst 33342 nuclear staining; type: cell-based, human; set-up: key: 0: no activity; 1: weak activity comprising less than 50% of the cells; 2: strong activity comprising more than 50% of the cells; conditions: 48 hour read-out
Method: as §1, §2

[3] = test system: Jurkat; experiment: Hoechst 33342 nuclear staining; type: cell-based, human; set-up: key: 0: no activity; 1: weak activity comprising less than 50% of the cells; 2: strong activity comprising more than 50% of the cells; conditions: 48 hour read-out
Method: as §1, §2

[4] = test system: Jily; experiment: MTS proliferation assay; type: cell-based; conditions: 72 h incubation
Method: (§3) The assay is performed in 96 well tissue culture plates. The cells (range : 1.5*10^3 - 10^4) are seeded out in 80 µl complete medium 24 h prior to compound treatment. The test compounds are added in 20 µl complete medium containing max 5% DMSO. The final compound concentrations in the assays are 10 µM, 3 µM, 1 µM and 0.3 µM, respectively. The assay plates are incubated for 72 h at culture conditions. The MTS reagent is prepared according to the manufacturer's protocol (Promega G1111). 20 µl MTS reagent are added to each well, the assay plates are quickly spun and incubated for another 3 h at culture conditions. Subsequently, the plates are shortly shaked and absorption measured with a microplate-reader at 492 nm. Table 3: MTS proliferation assay

[5] = test system: HeLa; experiment: MTS proliferation assay; type: cell-based; conditions: Homo sapiens, 72 h incubation
Method: as §3

[6] = test system: MRC5; experiment: MTS proliferation assay; type: cell-based; conditions: Homo sapiens; MRC5, 72 h incubation
Method: as §3

[7] = test system: H460; experiment: MTS proliferation assay; type: cell-based; conditions: Homo sapiens, NCI-H460; H460, 72 h incubation
Method: as §3

[8] = test system: Jurkat; experiment: MTS proliferation assay; type: cell-based; conditions: Homo sapiens, 72 h incubation
Method: as §3

[9] = test system: Jily; experiment: Hoechst 33342 nuclear staining; type: cell-based; set-up: key: 0: no activity; 1: weak activity comprising less than 50% of the cells; 2: strong activity comprising more than 50% of the cells; conditions: 48 hour read-out
Method: as §1, §2

[10] = test system: PBL; experiment: Hoechst 33342 nuclear staining; type: cell-based; set-up: key: 0: no activity; 1: weak activity comprising less than 50% of the cells; 2: strong activity comprising more than 50% of the cells; conditions: 48 hour read-out
Method: as §1, §2

SMILES	Hoechst 33342 nuclear staining score (fraction of apoptotic nuclei) ([1]; 0.01µM)	Hoechst 33342 nuclear staining score (fraction of apoptotic nuclei) ([1]; 0.1µM)	Hoechst 33342 nuclear staining score (fraction of apoptotic nuclei) ([1]; 1µM)	Hoechst 33342 nuclear staining score (fraction of apoptotic nuclei) ([2]; H460, 0.01µM)	Hoechst 33342 nuclear staining score (fraction of apoptotic nuclei) ([2]; H460, 0.1µM)	Hoechst 33342 nuclear staining score (fraction of apoptotic nuclei) ([2]; H460, 1µM)	Hoechst 33342 nuclear staining score (fraction of apoptotic nuclei) ([3]; 0.01µM)	Hoechst 33342 nuclear staining score (fraction of apoptotic nuclei) ([3]; 0.1µM)	Hoechst 33342 nuclear staining score (fraction of apoptotic nuclei) ([3]; 1µM)	IC50 [4] [µM]	IC50 [5] [µM]	IC50 [6] [µM]	IC50 [7] [µM]	IC50 [8] [µM]	Hoechst 33342 nuclear staining score (fraction of apoptotic nuclei) ([9]; 0.01µM)	Hoechst 33342 nuclear staining score (fraction of apoptotic nuclei) ([9]; 0.1µM)	Hoechst 33342 nuclear staining score (fraction of apoptotic nuclei) ([9]; 1µM)	Hoechst 33342 nuclear staining score (fraction of apoptotic nuclei) ([10]; 0.01µM)	Hoechst 33342 nuclear staining score (fraction of apoptotic nuclei) ([10]; 0.1µM)	Hoechst 33342 nuclear staining score (fraction of apoptotic nuclei) ([10]; 1µM)
COc1ccc(S(=O)(=O)n2cc(Br)cc2-c2cc(OC)c(OC)c(OC)c2)cc1 [Example 1, 4-Bromo-1-p-methoxyphenylsulfonyl-2-(3,4,5-trimethoxyphenyl)-pyrrole]	0	0	2 (strong activity comprising more than 50% of the cells.)	0	2 (strong activity comprising more than 50% of the cells.)	2 (strong activity comprising more than 50% of the cells.)	0	2 (strong activity comprising more than 50% of the cells.)	2 (strong activity comprising more than 50% of the cells.)	0.1 to 1	0.1 to 1	0.1 to 1	0.1 to 1	< 0.1	0	2 (strong activity comprising more than 50% of the cells.)	2 (strong activity comprising more than 50% of the cells.)	0	0	0
COc1ccc(S(=O)(=O)n2cccc2-c2cc(OC)c(OC)c(OC)c2)cc1 [Example 2, 1-p-methoxyphenylsulfonyl-2-(3,4,5-trimethoxyphenyl)-pyrrole]	0	2 (strong activity comprising more than 50% of the cells.)	2 (strong activity comprising more than 50% of the cells.)	0	2 (strong activity comprising more than 50% of the cells.)	2 (strong activity comprising more than 50% of the cells.)	0	2 (strong activity comprising more than 50% of the cells.)	2 (strong activity comprising more than 50% of the cells.)	< 0.1	0.1 to 1	< 0.1	< 0.1	< 0.1	0	2 (strong activity comprising more than 50% of the cells.)	2 (strong activity comprising more than 50% of the cells.)	0	0	0
COc1ccc(S(=O)(=O)n2cc(C(=O)Nc3ccc(N4CCOCC4)cc3)cc2-c2cc(OC)c(OC)c(OC)c2)cc1 [Example 3, N-p-morpholinophenyl-1-p-methoxyphenylsulfonyl-2-(3,4,5-trimethoxyphenyl)-Pyrrole-4-carboxamide]	0	2 (strong activity comprising more than 50% of the cells.)	2 (strong activity comprising more than 50% of the cells.)	0	2 (strong activity comprising more than 50% of the cells.)	2 (strong activity comprising more than 50% of the cells.)	2 (strong activity comprising more than 50% of the cells.)	2 (strong activity comprising more than 50% of the cells.)	2 (strong activity comprising more than 50% of the cells.)	< 0.1	< 0.1	< 0.1	< 0.1	< 0.1	2 (strong activity comprising more than 50% of the cells.)	2 (strong activity comprising more than 50% of the cells.)	2 (strong activity comprising more than 50% of the cells.)	0	0	0
